In one test the test system is Staphylococcus aureus. The test is described as follows: Antibacterial activity against Staphylococcus aureus clinical isolate after 18 to 22 hrs by broth microdilution method. The format is functional. For orientation: Dilution methods test growth across graded concentrations, often in twofold steps.
The next test deals with Proteus mirabilis. The test is described as follows: Antibacterial activity against Proteus mirabilis clinical isolate after 18 to 22 hrs by broth microdilution method. The format is functional.
The test system of another test is Candida parapsilosis. The test is described as follows: Antifungal activity against Candida parapsilosis clinical isolate after 24 hrs by broth microdilution method. The format is functional. The settings on record: Lodderomyces parapsilosis.
The next test has as its system Candida tropicalis. The test is described as follows: Antifungal activity against Candida tropicalis clinical isolate after 24 hrs by broth microdilution method. The format is functional.
The subject of a further test is [Candida] sake. Nature of the test: Antifungal activity against Candida sake clinical isolate after 24 hrs by broth microdilution method. The format is functional. The settings on record: Fermentozyma sake.
A further test has as its system Enterobacter sp. The test is described as follows: Antibacterial activity against Enterobacter spp. clinical isolate after 18 to 22 hrs by broth microdilution method. The format is functional.
In the next test the test system is Escherichia coli. Nature of the test: Antibacterial activity against Escherichia coli after clinical isolate 18 to 22 hrs by broth microdilution method. The format is functional.
Another test relates to Pichia kudriavzevii. The test is described as follows: Antifungal activity against Candida krusei clinical isolate after 24 hrs by broth microdilution method. The format is functional.
Another test has as its system Nakaseomyces glabratus. Nature of the test: Antifungal activity against Candida glabrata clinical isolate after 24 hrs by broth microdilution method. The format is functional.
The test system of a further test is Candida albicans. The test is described as follows: Antifungal activity against Candida albicans clinical isolate after 24 hrs by broth microdilution method. The format is functional.
In the next test the test system is Klebsiella oxytoca. The test is described as follows: Antibacterial activity against Klebsiella oxytoca clinical isolate after 18 to 22 hrs by broth microdilution method. The format is functional.
The test system of a further test is Staphylococcus warneri. The test is described as follows: Antibacterial activity against Staphylococcus warneri clinical isolate after 18 to 22 hrs by broth microdilution method. The format is functional.
Test [1] concerns Streptococcus sp. (viridans group). The test is described as follows: Antibacterial activity against Streptococcus alpha-hemolyticus clinical isolate after 18 to 22 hrs by broth microdilution method.
A further test relates to Enterococcus faecalis. Nature of the test: Antibacterial activity against Streptococcus faecalis clinical isolate after 18 to 22 hrs by broth microdilution method. The format is functional.

The values that follow come from ChEMBL document CHEMBL3804786, “Novel 1,3-thiazolidin-4-one derivatives as promising anti-Candida agents endowed with anti-oxidant and chelating properties” (Eur J Med Chem, 2016).

SMILES strings stand for the structures. Converted amounts (≈) assume the structure as drawn. Some results are limits rather than exact numbers.

The term MIC denotes the lowest concentration that inhibits growth of the organism.

In the case of `O=C1CS/C(=N\N=C2CCCC2)N1Cc1ccccc1Cl`, the MIC against Staphylococcus aureus is more than 256 µg/mL; in the test with Proteus mirabilis, more than 256 µg/mL; against Candida parapsilosis, 8 µg/mL (≈ 24.9 µM); against Candida tropicalis it was 4 µg/mL (≈ 12.4 µM); in [Candida] sake, 2 µg/mL (≈ 6.21 µM); in the test with Enterobacter sp. it was more than 256 µg/mL. Moreover, the MIC against Escherichia coli is more than 256 µg/mL; in the test on Pichia kudriavzevii, 8 µg/mL (≈ 24.9 µM); against Nakaseomyces glabratus, 4 µg/mL (≈ 12.4 µM); with Candida albicans it was 2 µg/mL (≈ 6.21 µM); against Klebsiella oxytoca, more than 256 µg/mL; in the test with Staphylococcus warneri, more than 256 µg/mL. For the same molecule, the MIC (in [1]; against Enterococcus faecalis) was more than 256 µg/mL in each case.

As for `O=C1CS/C(=N\N=C2CCCC2)N1Cc1cccc(Cl)c1`, the MIC with Staphylococcus aureus was more than 256 µg/mL; against Proteus mirabilis, more than 256 µg/mL; in the test on Candida parapsilosis it was 4 µg/mL (≈ 12.4 µM); against Candida tropicalis, 8 µg/mL (≈ 24.9 µM); in [Candida] sake, 2 µg/mL (≈ 6.21 µM); against Enterobacter sp., more than 256 µg/mL. In addition, the MIC in the test with Escherichia coli was more than 256 µg/mL; in the test with Pichia kudriavzevii, 16 µg/mL (≈ 49.7 µM); in the test on Nakaseomyces glabratus it was 4 µg/mL (≈ 12.4 µM); in the test with Candida albicans, 4 µg/mL (≈ 12.4 µM); against Klebsiella oxytoca it was more than 256 µg/mL; against Staphylococcus warneri, more than 256 µg/mL. Besides, the MIC (in [1]; with Enterococcus faecalis) was more than 256 µg/mL throughout.

As for `C/C(=N\N=C1/SCC(=O)N1Cc1ccccc1Cl)c1ccccn1`, the MIC against Staphylococcus aureus was more than 256 µg/mL; with Proteus mirabilis, more than 256 µg/mL; in the test on Candida parapsilosis, 8 µg/mL (≈ 22.3 µM); in the test with Candida tropicalis it was 2 µg/mL (≈ 5.57 µM); in test [Candida] sake, 4 µg/mL (≈ 11.1 µM); in the test with Enterobacter sp., more than 256 µg/mL. For the same molecule, the MIC with Escherichia coli is more than 256 µg/mL; with Pichia kudriavzevii, 4 µg/mL (≈ 11.1 µM); in the test with Nakaseomyces glabratus it was 4 µg/mL (≈ 11.1 µM); against Candida albicans, 4 µg/mL (≈ 11.1 µM); with Klebsiella oxytoca, more than 256 µg/mL; in the test with Staphylococcus warneri it was more than 256 µg/mL. Moreover, the MIC (in [1]; in the test with Enterococcus faecalis) was more than 256 µg/mL in each case.

On to `C[C@@H]1[C@H](O)[C@@H](C)/C=C/C=C/C=C/C=C/C=C/C=C/C=C/[C@H](O[C@@H]2O[C@H](C)[C@@H](O)[C@H](N)[C@@H]2O)C[C@@H]2O[C@](O)(C[C@@H](O)C[C@@H](O)[C@H](O)CC[C@@H](O)C[C@@H](O)CC(=O)O[C@H]1C)C[C@H](O)[C@H]2C(=O)O` [AMPHOTERICIN B], for which the MIC against Candida parapsilosis was found to be 2 µg/mL (≈ 2.16 µM); against Candida tropicalis it was 2 µg/mL (≈ 2.16 µM); in [Candida] sake, 2 µg/mL (≈ 2.16 µM); against Pichia kudriavzevii, 4 µg/mL (≈ 4.33 µM); against Nakaseomyces glabratus it was 4 µg/mL (≈ 4.33 µM); with Candida albicans, 4 µg/mL (≈ 4.33 µM).

Turning to `CC(C)(O/N=C(\C(=O)N[C@@H]1C(=O)N2C(C(=O)[O-])=C(C[n+]3ccccc3)CS[C@H]12)c1csc(N)n1)C(=O)O` [CEFTAZIDIME], the MIC in the test with Staphylococcus aureus came out at 2 µg/mL (≈ 3.66 µM); against Proteus mirabilis, 8 µg/mL (≈ 14.6 µM); with Enterobacter sp. it was 8 µg/mL (≈ 14.6 µM); against Escherichia coli, 4 µg/mL (≈ 7.32 µM); in the test with Klebsiella oxytoca, 8 µg/mL (≈ 14.6 µM); in the test on Staphylococcus warneri, 4 µg/mL (≈ 7.32 µM). For the same molecule, the MIC (in test [1]; against Enterococcus faecalis) was 4 µg/mL (≈ 7.32 µM) each time.

On to `OC(Cn1cncn1)(Cn1cncn1)c1ccc(F)cc1F` [FLUCONAZOLE], for which the MIC (against Candida parapsilosis; against Candida tropicalis; in test [Candida] sake; in the test on Pichia kudriavzevii; against Nakaseomyces glabratus; against Candida albicans) was 2 µg/mL (≈ 6.53 µM) each time.

Turning to `CC(=O)N1CCN(c2ccc(OCC3COC(Cn4ccnc4)(c4ccc(Cl)cc4Cl)O3)cc2)CC1` (stereo not given) [KETOCONAZOLE], the MIC with Candida parapsilosis was determined as 2 µg/mL (≈ 3.76 µM); against Candida tropicalis it was 2 µg/mL (≈ 3.76 µM); in test [Candida] sake, 4 µg/mL (≈ 7.53 µM); with Pichia kudriavzevii, 4 µg/mL (≈ 7.53 µM); against Nakaseomyces glabratus it was 2 µg/mL (≈ 3.76 µM); in the test with Candida albicans, 2 µg/mL (≈ 3.76 µM).

Regarding `Clc1ccc(COC(Cn2ccnc2)c2ccc(Cl)cc2Cl)c(Cl)c1` (stereo not given) [MICONAZOLE], the MIC was 4 µg/mL (≈ 9.61 µM) in the test on Candida parapsilosis; 2 µg/mL (≈ 4.81 µM) with Candida tropicalis; 2 µg/mL (≈ 4.81 µM) in test [Candida] sake; 4 µg/mL (≈ 9.61 µM) against Pichia kudriavzevii; 4 µg/mL (≈ 9.61 µM) with Nakaseomyces glabratus; 2 µg/mL (≈ 4.81 µM) in the test on Candida albicans.

In the case of `Clc1ccc(C(Cn2ccnc2)OCc2ccsc2Cl)c(Cl)c1` (stereo not given) [TIOCONAZOLE], the MIC against Candida parapsilosis is 8 µg/mL (≈ 20.6 µM); with Candida tropicalis, 8 µg/mL (≈ 20.6 µM); in test [Candida] sake, 4 µg/mL (≈ 10.3 µM); with Pichia kudriavzevii it was 8 µg/mL (≈ 20.6 µM); with Nakaseomyces glabratus it was 4 µg/mL (≈ 10.3 µM); in the test with Candida albicans, 8 µg/mL (≈ 20.6 µM).
